Here are results for one compound from patent US20160101093A1, “METHODS FOR THE TREATMENT OF PREMATURE EJACULATION” (priority 2013, published 2016).

SMILES strings stand for the structures.

The test system of data set [1] is patient with lifelong premature ejaculation. Briefly: Patient self-injection of bupivacaine at home, subcutaneous, dorsal penis (contemplated Examples 1 and 2). The class given is in vivo, human. Particulars: dorsally within 1 cm proximal to the glans, self-injected. The method, then: “Prolongation of climax time” means an increase in time (increase in climax baseline time) from which a patient becomes sexually aroused to the time of sexual climax (i.e. orgasm). This is commonly measured as the ‘intravaginal latency time’ and is measured by stopwatch held and activated by the female partner commencing with insertion of male organ into the female, ending at climax of the male. In one aspect, “treating premature ejaculation” means increasing the time between the beginning of sexual arousal of a patient and ejaculation by the patient; and in particular instances, it can mean increasing the time from which sexual intercourse begins to the time of ejaculation. It is contemplated by the present invention, that a patient with lifelong premature ejaculation and relationship stress proceeds to contact their physician. The physician prescribes a teaching injection of 0.2 mL bupivacaine. The administration of bupivacaine is made dorsally just before the glans, e.g., within 1 cm proximal to the glans. The injection is made subcutaneously to the left or right of midline. The injection anesthetizes the dorsal penile nerve. A 30-32 gauge needle is used, and the need is 10 mm or less (e.g., between 4-10 mm, e.g., 4 mm). […] In one aspect the patient sees an improvement in prolonging climax from 45 seconds (prior to treatment) to 4 minutes (following treatment). It is contemplated by the present invention, that a patient with lifelong premature ejaculation and relationship stress proceeds to contact their physician. The physician prescribes a teaching injection of 0.4 mL bupivacaine. The administration of bupivacaine is made dorsally just before the glans, e.g., within 1 cm proximal to the glans. The injection is made subcutaneously to the left or right of midline. The injection anesthetizes the dorsal penile nerve. A 30-32 gauge needle is used, and the need is 7 mm or less (between 4-7 mm). […] In one aspect the patient sees an improvement in prolonging climax from 45 seconds (prior to treatment) to 4 minutes (following treatment).

The subject of data set [2] is patient with premature ejaculation. Briefly: Randomized blinded study of clinician-administered bupivacaine injection, IELT and PEP recorded (Example 4). The data set is classed as in vivo, human. Particulars: 0.25% bupivacaine. The method, then:
A patient with premature ejaculation is 18 years or old and in a monogamous heterosexual relationship for 6 months. A screening/baseline run-in phase will request at least 4 measurements of IELT over a 4-6 week period. For each sexual episode, partner will record PEP, IELT, date and time of sexual encounter; patient will fill out PEP. To qualify for the treatment phase, patients must have a measured IELT of 2 minutes or less in 75% of valuable events. A volume of distribution of 0.4 and 0.8 mL will bathe the dorsal penile nerves as they are located just to the right and left of midline. Diffusion should occur across the midline given that the subcutaneous compartment has a low resistance to fluid migration. Diffusion of the drug solution should occur through Buck's fascia to the dorsal penile nerves. A concentration of bupivacaine (0.25%) is used for local nerve blocks. Doses of administration are of 1 mg of bupivacaine for the 0.4 mL volume and 2 mg for the 0.8 mL group. This is less than 1.5% of the maximum permitted dose. […] Patients will be randomized to one of 4 treatment groups. […] Subsequently, patient will be evaluated for eligibility for “treatment phase”—must have either: (1) IELT of 2 minutes or less in at least 75% or sexual episodes; or (2) IELT of 3 minutes or less in at least 75% of sexual episodes with PEP score indicating accompanying psychosocial or relationship distress. […]

Regarding `CCCCN1CCCCC1C(=O)Nc1c(C)cccc1C` (centres unmarked) [bupivacaine], in data set [1] (0.2 mL bupivacaine), the “climax time following treatment (45 seconds prior to treatment)” value (shortened to “climax time following treatment”) came out at 4 min, the “intravaginal latency time increase” value was “increases more than two-fold” and the “side-effect profile compared to previous therapies” value is “better side-effect profile compared to previous therapies”. In addition, in data set [1] (0.4 mL bupivacaine), the “climax time following treatment” value came to 4 min, the “intravaginal latency time increase” value is “increases more than two-fold” and the “side-effect profile compared to previous therapies” value is “better side-effect profile compared to previous therapies”. Moreover, the adverse dose-related effects entry in data set [2] (1 mg (0.4 mL) or 2 mg (0.8 mL)) is recorded as “not anticipated”. The “climax time following treatment” value in data set [2] (treatment groups, 1 mg in 0.4 mL or 2 mg in 0.8 mL, clinician-injected) is 4 min.
